From patent publication US9051295B2, “1-substituted indazole derivative” (Dainippon Sumitomo Pharma Co., Ltd., priority 2012, dated 2015)

Assays:
Slc: ddY mice = test: Novel object recognition test in mice (mORT); assay type: in vivo; conditions: at 0.3 mg/kg, 1.0 mg/kg or 3 mg/kg
Experimental: Evaluation of Cognitive Function with Mice in Novel Object Recognition Test (Hereinafter, Referred to as “mORT”)
Slc: ddY mice (25 g to 30 g, male, Japan SLC) can be used in the novel object recognition test wherein the interval between the 1st trial (training) and the 2nd trial (test) correlates with the memory loss for the objects used in the 1st trial, and a significant memory-loss is observed when the 2nd trial is performed 24 hours after the 1st trial. According to the test mechanism, the present compounds were administered prior to the 1st trial, and the enhancement effect on memory in the 2nd trial was evaluated.

human α7 nAChR = biological target: T1, human α7 nAChR (Homo sapiens, UniProt P36544); test: Evaluation of PAM activity with human α7 nACh receptor stably expressing cells (aequorin luminescence, FDSS7000, ACh EC20); assay type: cell-based; conditions: test compound 10 μmol/L; ACh at EC20; ratio of RLU (Max-Min) of test-compound wells to control wells
T1 construct: expressed in transfected cells; host or cells: GH4C1 cells (rat pituitary, ATCC CCL-82.2)
T1 sequence (P36544 23-502): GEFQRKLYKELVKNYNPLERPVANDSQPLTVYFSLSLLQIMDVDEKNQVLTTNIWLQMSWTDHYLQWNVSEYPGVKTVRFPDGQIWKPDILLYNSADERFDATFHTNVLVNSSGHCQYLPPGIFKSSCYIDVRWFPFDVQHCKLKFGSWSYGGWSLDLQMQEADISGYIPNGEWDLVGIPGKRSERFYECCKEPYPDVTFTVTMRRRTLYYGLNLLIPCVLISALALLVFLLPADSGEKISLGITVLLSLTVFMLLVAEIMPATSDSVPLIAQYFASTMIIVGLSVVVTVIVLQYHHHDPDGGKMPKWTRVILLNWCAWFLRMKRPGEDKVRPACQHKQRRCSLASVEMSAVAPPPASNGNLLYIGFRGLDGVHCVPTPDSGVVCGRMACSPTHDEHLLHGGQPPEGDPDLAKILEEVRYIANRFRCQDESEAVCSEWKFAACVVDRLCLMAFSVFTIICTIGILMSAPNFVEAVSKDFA
Excerpt: Evaluation of PAM Activity with Human α7 nACh Receptor Stably Expressing Cells
(1) Human α7 nAChR Stably Expressing Cells
Human α7 nAChR stably expressing cells were generated and cultured. In detail, GH4C1 cells derived from rat pituitary (cat#CCL-82.2, ATCC, USA) were used as a host cell. PcDNA3.1Zeo vector containing a nucleotide sequence encoding a protein GenBank BAC81731 and pcDNA3.1 vector containing human α7 nAChR gene (cat#V790-20, invitrogen, Carlsbad, Calif., USA) were transfected to the cells to give aequorins and human α7 nAChR stably expressing cells respectively. The aequorins and human α7 nAChR stably expressing cells were screened with Zeocin (cat#R25001, invitrogen, Carlsbad, Calif., USA) and Geneticin (cat#10131-027, invitrogen, Carlsbad, Calif., USA) respectively.
The cells were cultured in F-10 Nutrient Mixture (Ham) medium (cat#11550-043, invitrogen, Carlsbad, Calif., USA) containing 2.5% fetal bovine serum (cat#2917354, ICN Biomedicals, Inc, USA), 15% inactivated horse serum (cat#26050-088, invitrogen, Carlsbad, Calif., USA), 1 μg/mL Geneticin, and 5 μg/mL Puromycin (cat#14861-84, invitrogen, Carlsbad, Calif., USA), in a Collagen Type 1-coated dish (cat#4030-010, iwaki, Tokyo, Japan). During the culture, the medium was replaced with fresh medium in every 2 to 3 days, and the cells were treated with TrypLE Express (cat#45604-021, invitrogen, Carlsbad, Calif., USA) to collect them in every 7 days. Thus, the cells were subcultured.
7 Days after subculturing, the cells were treated with TrypLE Express to collect them when they were about 80% confluent. The cells were suspended in a reaction medium containing Hanks (cat#14065-056, invitrogen, Carlsbad, Calif., USA)/20 mmol/L Hepes (cat#15630-080, invitrogen, Carlsbad, Calif., USA), Buffer (pH 7.4), F-10 Nutrient Mixture (Ham), and 0.1 mg/mL Geneticin, and the suspension was seeded in a 384-well plate (cat#781090, Greiner, Germany) at 20000 cells/25 μL per well.
On the next day after seeding, Viviren (cat#E649X, Promega, Madison, Wis., USA) was added to the medium so that the final concentration could be 4 μmol/L (15 μL/well). The plates were centrifuged and then placed in the dark for 4 hours at room temperature.
(2) Preparation of the Test Samples
Each of the test compounds was dissolved in DMSO to prepare each test sample at a concentration of 1000-fold the final concentration. To the solution was added Hanks/20 mM HEPES/0.2% BSA (cat#A3803, Sigma, St. Louis, Mo., USA), and the concentration was adjusted to 6-fold the final concentration.
(3) Evaluation of PAM Activity
FDSS7000 (Hamamatsu Photonics) was used to detect the luminescence signal evoked by α7 nAChR stimulation. The cells and a luminescent substrate were put on a plate, and the test sample was added thereto. […] After the addition of ACh, the luminescence signal (the central wavelength: 465 nm) was measured for 138 seconds to calculate RLU (Max-Min). The ratio of the RLU (Max-Min) of the test-compound-containing wells to that of the control wells was defined as PAM activity.

SMILES	efficacy at higher doses (Slc: ddY mice)	α7PAM (%) @ 10 μmol/L (human α7 nAChR) [%]
CO[C@H]1CC[C@H](NC(=O)N2CCC(n3ncc4cc(C)ccc43)CC2)CC1 [Example 1, N-(trans-4-methoxycyclohexyl)-4-(5-methyl-1H-indazol-1-yl)piperidine-1-carboxamide]	the efficacy did not decrease	1209
CO[C@H]1CC[C@H](NC(=O)N2CCC(n3ncc4cc(C5CC5)ccc43)CC2)CC1 [Example 74, 4-(5-cyclopropyl-1H-indazol-1-yl)-N-(trans-4-methoxycyclohexyl)piperidine-1-carboxamide]	the efficacy did not decrease	1226
CCc1ccc2c(cnn2C2CCN(C(=O)N[C@H]3CC[C@H](OC)CC3)CC2)c1OC [Example 255, 4-(5-ethyl-4-methoxy-1H-indazol-1-yl)-N-(trans-4-methoxycyclohexyl)piperidine-1-carboxamide]		1096
CCc1ccc2c(cnn2C2CCN(C(=O)NC3CCOCC3)CC2)c1OC [Example 275, 4-(5-ethyl-4-methoxy-1H-indazol-1-yl)-N-(tetrahydro-2H-pyran-4-yl)piperidine-1-carboxamide]		1093
CO[C@H]1CC[C@H](NC(=O)N2CCC(n3ncc4cc(OC(F)F)ccc43)CC2)CC1 [Example 291, 4-[5-(difluoromethoxy)-1H-indazol-1-yl]-N-(trans-4-methoxycyclohexyl)piperidine-1-carboxamide]		1433
O=C(NC1CCOCC1)N1CCC(n2ncc3cc(C(F)(F)F)ccc32)CC1 [Example 297]		340
O=C(NC1CCOCC1)N1CCC(n2ncc3c(OC(F)(F)F)cccc32)CC1 [Example 304]		380
COc1c(C(F)(F)F)ccc2c1cnn2C1CCN(C(=O)NC2CCC(OC)CC2)CC1 (stereo not shown) [Example 317]		360
